Test results as given in publication PMC8556085, “Antimicrobial and Antioxidant Secondary Metabolites from Trifolium baccarinii Chiov. (Fabaceae) and Their Mechanisms of Antibacterial Action” (BioMed Research International, 2021).
In brackets after ≈: the same amount, converted by molar mass. Like-named read-outs stand apart in the source and are kept apart here. Marks after values point to notes of the source that are not given here.

What was measured:
[1] = test system: tested bacteria and yeasts; assay: Broth microdilution MIC/MMC, summary over all strains; assay type: cell-based; details: for antimicrobial activity class of pure compounds by cutoff points: against specific microorganism, cutoff points of ref 33; for antimicrobial activity: against the tested microorganisms; for MIC: read-out: MIC (range over the tested microorganisms)
Description: (§1) The antimicrobial activity was performed against five bacterial and two fungal species. The selected microorganisms were the Gram-positive (Staphylococcus aureus ATCC25923, methicillin-resistant Staphylococcus aureus 03 (MRSA03), and methicillin-resistant Staphylococcus aureus 04 (MRSA04)) and Gram-negative (Pseudomonas aeruginosa ATCC27853 and Escherichia coli S2(1)) bacteria and yeast strains of Candida albicans ATCC10231 and Cryptococcus neoformans H99. These microorganisms were taken from our laboratory collection. The fungal and bacterial strains were conserved on Sabouraud Dextrose Agar (SDA, Conda, Madrid, Spain) and nutrient agar (NA, Conda) slants, respectively.
(§2) The antimicrobial activity was investigated by determining the minimum inhibitory concentrations (MICs), minimum bactericidal concentrations (MBC), and minimum fungicidal concentrations (MFCs). MICs of extracts/compounds were monitored using the broth microdilution method. Dimethyl sulfoxide (DMSO, Fisher Chemicals) was used to dissolve the test sample to produce a stock solution that was twofold serially diluted in Mueller-Hinton broth (MHB) for bacteria and Sabouraud Dextrose Broth (SDB) for fungi to obtain a concentration range of 4096 to 0.25 μg/mL. One hundred microliters of each concentration was introduced into a well (96-well microplate) containing 90 μL of SDB or MHB and 10 μL of inoculum (at 1 × 10^6 CFU/mL for bacteria and 1 × 10^5 spores/mL for yeasts) which were added to obtain a final concentration range of 2048 to 0.125 μg/mL. Plates were covered and incubated on the shaker at 37°C, 30°C, and 30°C during 24 h, 48 h, and 72 h for bacteria, Candida albicans, and Cryptococcus neoformans, respectively. The MICs were visually assessed after the incubation period and were considered the lowest sample concentration that inhibits the growth or the visual growth of the organism.
(§3) The positive controls were oxacillin (Sigma-Aldrich, Steinheim, Germany) for bacteria and nystatin (Sigma-Aldrich, Steinheim, Germany) for yeasts, and the negative control was broth with 20 μL of DMSO. The assay was carried out in triplicate.

[2] = test system: Pseudomonas aeruginosa ATCC27853; assay: Broth microdilution MIC/MMC; assay type: cell-based; details: for MBC / MMC/MIC: Pseudomonas aeruginosa ATCC27853; for MIC: Pseudomonas aeruginosa ATCC27853, 24 h, 37°C, read-out: MIC
Description: as §1, §2, §3

[3] = test system: Cryptococcus neoformans H99; assay: Broth microdilution MIC/MMC; assay type: cell-based; details: for MIC: Cryptococcus neoformans H99, 72 h, 30°C
Description: as §1, §2, §3

[4] = test system: Candida albicans ATCC10231; assay: Broth microdilution MIC/MMC; assay type: cell-based; details: for MIC: Candida albicans ATCC10231, 48 h, 30°C
Description: as §1, §2, §3

[5] = test system: Staphylococcus aureus ATCC25923; assay: Broth microdilution MIC/MMC; assay type: cell-based; details: for MBC / MMC/MIC: Staphylococcus aureus ATCC25923; for MIC: Staphylococcus aureus ATCC25923, 24 h, 37°C, read-out: MIC
Description: as §1, §2, §3

Escherichia coli S2(1) = assay: Broth microdilution MIC/MMC; assay type: cell-based; details: for MIC: 24 h, 37°C, read-out: MIC
Description: as §1, §2, §3

[6] = test system: methicillin-resistant Staphylococcus aureus 04 (MRSA04); assay: Broth microdilution MIC/MMC; assay type: cell-based; details: for MBC / MIC: Staphylococcus aureus; for MBC / MMC/MIC: MRSA04; for MIC: MRSA04, 24 h, 37°C, read-out: MIC
Description: as §1, §2, §3

[7] = test system: methicillin-resistant Staphylococcus aureus 03 (MRSA03); assay: Broth microdilution MIC/MMC; assay type: cell-based; details: for MBC / MIC: Staphylococcus aureus; for MBC / MMC/MIC: MRSA03; for MIC: MRSA03, 24 h, 37°C, read-out: MIC
Description: as §1, §2, §3

[8] = Gallic acid equivalent antioxidant capacity (GEAC) assay; details: for Gallic acid equivalent antioxidant capacity (GEAC): ABTS radical, 420 nm, 240 s, mean ± SD
Description: The GEAC test was performed as described previously with some slight modifications. The laccase was purified from Sclerotinia sclerotiorum according to the described protocol. 20 μL of laccase (1 mM stock solution), 20 μL of test sample, 10 μL of ABTS (2,2′-azino-bis(3-ethylbenzothiazoline-6-sulfonic acid) (74 mM stock solution), and 950 μL of acetate buffer (pH = 5.0, 100 mM) were added in a quartz cuvette. The concentrations of the samples in the assay mixture were 800, 400, 200, 100, and 10 μg/mL for the extracts and 200, 100, 50, 25, and 12.5 μg/mL for the isolated compounds. The content of the generated ABTS^●+ radical was measured at 420 nm after 240 s reaction time and was converted to gallic acid equivalents by the use of a calibration curve (Pearson's correlation coefficient: r = 0.998) constructed with 0, 4, 10, 14, 28, 56, and 84 μM gallic acid standards rather than Trolox. Experiments were done in triplicate and repeated three times with similar results.

[9] = DPPH free radical scavenging assay; details: for DPPH free radical scavenging activity (EC50): mean ± SD
Description: The free radical scavenging activity of extracts and compounds was evaluated according to the described method. The EC50 (μg/mL), which is the amount of sample necessary to inhibit by 50% the absorbance of free radical DPPH, was calculated. Vitamin C was used as a standard control. All the analyses were carried out in triplicate and repeated three times.

Compound	antimicrobial activity class of pure compounds by cutoff points [1]	MIC [1] [µg/mL]	MBC [2] [µg/mL]	MIC [2] [µg/mL]	MFC ([3]; Cryptococcus neoformans H99) [µg/mL]	MIC ([3]; read-out: MIC) [µg/mL]	MFC ([4]; Candida albicans ATCC10231) [µg/mL]	MIC ([4]; read-out: MIC) [µg/mL]	MBC [5] [µg/mL]	MIC [5] [µg/mL]	MBC (Escherichia coli S2(1)) [µg/mL]	MIC (Escherichia coli S2(1)) [µg/mL]	MBC [6] [µg/mL]	MIC [6] [µg/mL]	MBC [7] [µg/mL]	MIC [7] [µg/mL]	MMC/MIC [2]	MMC/MIC [5]	MMC/MIC (Escherichia coli S2(1))	DPPH free radical scavenging activity (EC50) [9]	further results
CO[C@@H]1O[C@H](CO)[C@@H](O)[C@H](O)[C@H]1O [compound 7, 1-methyl-β-D-glucopyranoside]	not active	> 256	> 256	> 256	> 256	> 256	> 256	> 256	> 256	> 256	> 256	> 256	> 256	> 256	> 256	> 256	–	–	–	–	antimicrobial activity [1]: not active; activity in TEAC assay [8]: inactive; activity in DPPH assay [9]: inactive
COc1ccc(-c2coc3cc(O[C@@H]4O[C@H](CO)[C@@H](O)[C@H](O)[C@H]4O)ccc3c2=O)cc1 [compound 8, ononin]	moderate/low	64 to 256 (≈ 149 to 595 µM)	256 (≈ 595 µM)	256 (≈ 595 µM)	> 256	64 (≈ 149 µM)	> 256	128 (≈ 297 µM)	256 (≈ 595 µM)	64 (≈ 149 µM)	256 (≈ 595 µM)	128 (≈ 297 µM)	> 256	256 (≈ 595 µM)	> 256	256 (≈ 595 µM)	1	4	2	38.96 ± 1.54^g μg/mL	Gallic acid equivalent antioxidant capacity (GEAC) [8]: 57.43 ± 0.97^j μg/mL
COc1ccc(-c2coc3cc(OC4OC(CO)C(O)C(O)C4O)cc(O)c3c2=O)cc1 (centres unmarked) [compound 6, sissotrin]	moderate/low	32 to 256 (≈ 71.7 to 573 µM)	256 (≈ 573 µM)	128 (≈ 287 µM)	256 (≈ 573 µM)	32 (≈ 71.7 µM)	> 256	64 (≈ 143 µM)	128 (≈ 287 µM)	64 (≈ 143 µM)	128 (≈ 287 µM)	64 (≈ 143 µM)	> 256	256 (≈ 573 µM)	> 256	256 (≈ 573 µM)	2	2	2	7.13 ± 0.97^e μg/mL	MMC/MIC ([3]; Cryptococcus neoformans H99): 8; Gallic acid equivalent antioxidant capacity (GEAC) [8]: 72.96 ± 1.54^i μg/mL
OC[C@@H](O)[C@@H](O)[C@H](O)[C@H](O)CO [compound 9, D-mannitol]	low/not active	≥ 128	> 256	256 (≈ 1410 µM)	> 256	256 (≈ 1410 µM)	> 256	> 256	> 256	128 (≈ 703 µM)	> 256	128 (≈ 703 µM)	> 256	> 256	> 256	> 256	–	–	–	–	antimicrobial activity [1]: low activity; activity in TEAC assay [8]: inactive; activity in DPPH assay [9]: inactive
CC1(C)CC(O)C2(C)CCC3(C)C(=CCC4C5(C)CCC(OC6OC(C(=O)O)C(O)C(O)C6O)C(C)(CO)C5CCC43C)C2C1 [compound 10, 3-O-β-D-glucuronopyranosylsoyasapogenol B]	low/not active	≥ 256	> 256	256 (≈ 403 µM)	> 256	256 (≈ 403 µM)	> 256	> 256	> 256	256 (≈ 403 µM)	> 256	256 (≈ 403 µM)	> 256	> 256	> 256	> 256	–	–	–	–	antimicrobial activity [1]: low activity; activity in TEAC assay [8]: inactive; activity in DPPH assay [9]: inactive
O=c1cc(-c2ccc(O[C@@H]3O[C@H](CO)[C@@H](O)[C@H](O)[C@H]3O)c(O)c2)oc2cc(O)cc(O)c12 [compound 4, luteolin-4′-O-β-D-glucopyranoside]	moderate	16 to 64 (≈ 35.7 to 143 µM)	128 (≈ 285 µM)	64 (≈ 143 µM)	16 (≈ 35.7 µM)	16 (≈ 35.7 µM)	16 (≈ 35.7 µM)	16 (≈ 35.7 µM)	64 (≈ 143 µM)	32 (≈ 71.4 µM)	32 (≈ 71.4 µM)	32 (≈ 71.4 µM)	128 (≈ 285 µM)	64 (≈ 143 µM)	128 (≈ 285 µM)	64 (≈ 143 µM)	2	2	1	3.71 ± 0.99^d μg/mL	MMC/MIC ([3]; Cryptococcus neoformans H99): 1; MMC/MIC ([4]; Candida albicans ATCC10231): 1; MMC/MIC [6]: 2; MMC/MIC [7]: 2; Gallic acid equivalent antioxidant capacity (GEAC) [8]: 118.71 ± 0.19^g μg/mL
O=C1O[C@H]([C@@H](O)CO)C(O)=C1O [Vitamin C, reference compound]	–	–	–	–	–	–	–	–	–	–	–	–	–	–	–	–	–	–	–	1.81 ± 0.19^h μg/mL	–
C[C@@H]1[C@H](O)[C@@H](C)/C=C/C=C/CC/C=C/C=C/C=C/C=C/C(O[C@H]2O[C@H](C)[C@@H](O)[C@H](N)[C@@H]2O)CC2O[C@](O)(CC(O)C(O)CCC(O)CC(O)CC(O)CC(=O)O[C@H]1C)CC(O)C2C(=O)O (some centres unmarked) [nystatin, reference compound]	–	–	–	–	–	–	–	–	–	–	–	–	–	–	–	–	–	–	–	–	MMC/MIC (microbicidal activities) ([1]; against all the tested microorganisms): ≤ 4; MMC ([3]; Cryptococcus neoformans H99): 2 µg/mL; MMC/MIC ([3]; Cryptococcus neoformans H99): 1; MIC [3]: 2 µg/mL (≈ 2.16 µM); MMC ([4]; Candida albicans ATCC10231): 1 µg/mL; MMC/MIC ([4]; Candida albicans ATCC10231): 1; MIC [4]: 1 µg/mL (≈ 1.08 µM)
COc1ccc(-c2coc3cc(O)cc(O)c3c2=O)cc1 [compound 1, biochanin A]	moderate	32 to 64 (≈ 113 to 225 µM)	64 (≈ 225 µM)	32 (≈ 113 µM)	32 (≈ 113 µM)	32 (≈ 113 µM)	64 (≈ 225 µM)	32 (≈ 113 µM)	32 (≈ 113 µM)	32 (≈ 113 µM)	64 (≈ 225 µM)	32 (≈ 113 µM)	128 (≈ 450 µM)	64 (≈ 225 µM)	128 (≈ 450 µM)	64 (≈ 225 µM)	2	1	2	4.87 ± 0.43^d μg/mL	MMC/MIC ([3]; Cryptococcus neoformans H99): 1; MMC/MIC ([4]; Candida albicans ATCC10231): 2; MMC/MIC [6]: 2; MMC/MIC [7]: 2; Gallic acid equivalent antioxidant capacity (GEAC) [8]: 101.77 ± 1.24^d μg/mL
